Assay results taken from ChEMBL document CHEMBL1909046, “DrugMatrix in vitro pharmacology data”.

test system: not listed separately; assay: DRUGMATRIX: Atrial Natriuretic Factor (ANF) radioligand binding (ligand: [125I] ANF (rat)); assay type: cell membranes, Cavia porcellus, Dunkin-Hartley, Adrenal gland, Membrane; conditions: Not Active = under 50% inhibition at 10 µM

Row | Structure (SMILES) | IC50 | Ki
1 | NCC(=O)O [GLYCINE] | Not Active | Not Active
2 | O=C1CCc2cc(OCCCCc3nnnn3C3CCCCC3)ccc2N1 [CILOSTAZOL] | Not Active | Not Active
3 | O=C(O)c1cn(C2CC2)c2cc(N3CCNCC3)c(F)cc2c1=O [CIPROFLOXACIN] | Not Active | Not Active
4 | O=C1OCCN1/N=C/c1ccc([N+](=O)[O-])o1 [FURAZOLIDONE] | Not Active | Not Active

target: Protein phosphatase 3 catalytic subunit alpha (Homo sapiens, UniProt Q08209); design: species or system Escherichia coli; conditions: not given;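 also: inhibition of calcineurin (PP2B) enzyme activity, measured with DiFMUP as the substrate; in other assays of this panel Not Active means under 50% inhibition at 10 µM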

Row | Structure (SMILES) | IC50
5 | NCC(=O)O [GLYCINE] | Not Active
6 | O=C1CCc2cc(OCCCCc3nnnn3C3CCCCC3)ccc2N1 [CILOSTAZOL] | Not Active
7 | O=C(O)c1cn(C2CC2)c2cc(N3CCNCC3)c(F)cc2c1=O [CIPROFLOXACIN] | Not Active
8 | O=C1OCCN1/N=C/c1ccc([N+](=O)[O-])o1 [FURAZOLIDONE] | Not Active

target: Kappa-type opioid receptor (Homo sapiens, UniProt P41145); assay: DRUGMATRIX: Opiate kappa (OP2, KOP) radioligand binding (ligand: [3H] Diprenorphine); assay type: cell membranes, HEK293, Membrane; conditions: hek293; Not Active = under 50% inhibition at 10 µM
Sequence (P41145 whole entry): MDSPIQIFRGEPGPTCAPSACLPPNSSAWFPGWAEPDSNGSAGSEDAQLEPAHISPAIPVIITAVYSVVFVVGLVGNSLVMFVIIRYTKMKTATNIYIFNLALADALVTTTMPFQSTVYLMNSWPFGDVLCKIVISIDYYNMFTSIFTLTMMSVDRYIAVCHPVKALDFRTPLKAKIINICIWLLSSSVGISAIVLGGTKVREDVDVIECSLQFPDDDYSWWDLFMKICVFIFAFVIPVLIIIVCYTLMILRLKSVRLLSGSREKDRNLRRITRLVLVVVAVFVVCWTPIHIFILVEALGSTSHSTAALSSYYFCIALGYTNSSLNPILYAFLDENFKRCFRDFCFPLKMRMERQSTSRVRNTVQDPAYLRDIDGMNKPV

Row | Structure (SMILES) | IC50
9 | NCC(=O)O [GLYCINE] | Not Active
10 | O=C1CCc2cc(OCCCCc3nnnn3C3CCCCC3)ccc2N1 [CILOSTAZOL] | Not Active
11 | O=C(O)c1cn(C2CC2)c2cc(N3CCNCC3)c(F)cc2c1=O [CIPROFLOXACIN] | Not Active
12 | O=C1OCCN1/N=C/c1ccc([N+](=O)[O-])o1 [FURAZOLIDONE] | Not Active

target: T1, Alpha-2C adrenergic receptor (Homo sapiens, UniProt P18825); assay: DRUGMATRIX: Adrenergic Alpha-2C radioligand binding (ligand: [3H] MK-912); assay type: cell membranes, Sf9, Membrane; conditions: sf9
T1 sequence (P18825 whole entry): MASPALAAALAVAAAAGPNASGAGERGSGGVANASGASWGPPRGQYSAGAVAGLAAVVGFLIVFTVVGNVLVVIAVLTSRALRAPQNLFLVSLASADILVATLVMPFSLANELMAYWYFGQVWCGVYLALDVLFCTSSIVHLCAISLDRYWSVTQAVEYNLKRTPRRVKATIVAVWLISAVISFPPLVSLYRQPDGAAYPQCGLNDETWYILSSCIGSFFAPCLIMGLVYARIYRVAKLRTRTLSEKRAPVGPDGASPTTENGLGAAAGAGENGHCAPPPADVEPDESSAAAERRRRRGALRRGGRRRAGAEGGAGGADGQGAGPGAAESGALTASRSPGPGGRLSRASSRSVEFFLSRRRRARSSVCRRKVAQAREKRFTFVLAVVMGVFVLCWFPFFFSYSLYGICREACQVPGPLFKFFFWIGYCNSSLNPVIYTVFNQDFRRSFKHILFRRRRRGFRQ

Row | Structure (SMILES) | IC50
13 | NCC(=O)O [GLYCINE] | Not Active
14 | O=C1CCc2cc(OCCCCc3nnnn3C3CCCCC3)ccc2N1 [CILOSTAZOL] | Not Active
15 | O=C(O)c1cn(C2CC2)c2cc(N3CCNCC3)c(F)cc2c1=O [CIPROFLOXACIN] | Not Active
16 | O=C1OCCN1/N=C/c1ccc([N+](=O)[O-])o1 [FURAZOLIDONE] | Not Active

test system: not listed separately; assay: DRUGMATRIX: Phosphodiesterase PDE3 enzyme inhibition (substrate: [3H]cAMP + cAMP); assay type: tissue-based, Homo sapiens; conditions: platelet; Not Active = under 50% inhibition at 10 µM

Row | Structure (SMILES) | IC50 | Ki
17 | NCC(=O)O [GLYCINE] | Not Active | Not Active
18 | O=C(O)c1cn(C2CC2)c2cc(N3CCNCC3)c(F)cc2c1=O [CIPROFLOXACIN] | Not Active | Not Active
19 | O=C1OCCN1/N=C/c1ccc([N+](=O)[O-])o1 [FURAZOLIDONE] | Not Active | Not Active

same assay, conditions: platelet; Not Active = under 50% inhibition at 10 µM; read-out: IC50

Row | Structure (SMILES) | IC50 [nM]
20 | O=C1CCc2cc(OCCCCc3nnnn3C3CCCCC3)ccc2N1 [CILOSTAZOL] | 271

test system: not listed separately; assay: DRUGMATRIX: GABAA, Flunitrazepam, Central radioligand binding (ligand: [3H] Flunitrazepam); assay type: cell membranes, Rattus norvegicus, Wistar, Brain, Membrane; conditions: Not Active = under 50% inhibition at 10 µM

Row | Structure (SMILES) | IC50 | Ki
21 | NCC(=O)O [GLYCINE] | Not Active | Not Active
22 | O=C1CCc2cc(OCCCCc3nnnn3C3CCCCC3)ccc2N1 [CILOSTAZOL] | Not Active | Not Active
23 | O=C(O)c1cn(C2CC2)c2cc(N3CCNCC3)c(F)cc2c1=O [CIPROFLOXACIN] | Not Active | Not Active
24 | O=C1OCCN1/N=C/c1ccc([N+](=O)[O-])o1 [FURAZOLIDONE] | Not Active | Not Active

target: Cannabinoid receptor 1 (Homo sapiens, UniProt P21554); assay type: cell membranes, Membrane; conditions: chem-1; also: in other assays of this panel Not Active means under 50% inhibition at 10 µM
Sequence (P21554 whole entry): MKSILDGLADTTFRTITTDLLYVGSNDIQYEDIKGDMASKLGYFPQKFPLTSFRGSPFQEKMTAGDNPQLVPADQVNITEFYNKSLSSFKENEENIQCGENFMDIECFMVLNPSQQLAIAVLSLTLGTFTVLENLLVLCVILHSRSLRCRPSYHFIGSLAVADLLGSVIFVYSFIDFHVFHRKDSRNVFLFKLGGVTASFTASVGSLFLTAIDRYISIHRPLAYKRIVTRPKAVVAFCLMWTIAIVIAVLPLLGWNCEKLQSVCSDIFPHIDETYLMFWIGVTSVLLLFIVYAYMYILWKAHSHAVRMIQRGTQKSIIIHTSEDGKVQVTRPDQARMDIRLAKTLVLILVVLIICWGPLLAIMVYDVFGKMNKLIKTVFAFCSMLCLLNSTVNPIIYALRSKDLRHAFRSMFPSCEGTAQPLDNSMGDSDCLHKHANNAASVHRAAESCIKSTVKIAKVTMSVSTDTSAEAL

Row | Structure (SMILES) | IC50
25 | NCC(=O)O [GLYCINE] | Not Active
26 | O=C1CCc2cc(OCCCCc3nnnn3C3CCCCC3)ccc2N1 [CILOSTAZOL] | Not Active
27 | O=C(O)c1cn(C2CC2)c2cc(N3CCNCC3)c(F)cc2c1=O [CIPROFLOXACIN] | Not Active
28 | O=C1OCCN1/N=C/c1ccc([N+](=O)[O-])o1 [FURAZOLIDONE] | Not Active

target: Sodium-dependent noradrenaline transporter (Homo sapiens, UniProt P23975); assay: DRUGMATRIX: Norepinephrine Transporter radioligand binding (ligand: [125I] RTI-55); assay type: cell membranes, MDCK, Membrane; conditions: mdck; Not Active = under 50% inhibition at 10 µM
Sequence (P23975 whole entry): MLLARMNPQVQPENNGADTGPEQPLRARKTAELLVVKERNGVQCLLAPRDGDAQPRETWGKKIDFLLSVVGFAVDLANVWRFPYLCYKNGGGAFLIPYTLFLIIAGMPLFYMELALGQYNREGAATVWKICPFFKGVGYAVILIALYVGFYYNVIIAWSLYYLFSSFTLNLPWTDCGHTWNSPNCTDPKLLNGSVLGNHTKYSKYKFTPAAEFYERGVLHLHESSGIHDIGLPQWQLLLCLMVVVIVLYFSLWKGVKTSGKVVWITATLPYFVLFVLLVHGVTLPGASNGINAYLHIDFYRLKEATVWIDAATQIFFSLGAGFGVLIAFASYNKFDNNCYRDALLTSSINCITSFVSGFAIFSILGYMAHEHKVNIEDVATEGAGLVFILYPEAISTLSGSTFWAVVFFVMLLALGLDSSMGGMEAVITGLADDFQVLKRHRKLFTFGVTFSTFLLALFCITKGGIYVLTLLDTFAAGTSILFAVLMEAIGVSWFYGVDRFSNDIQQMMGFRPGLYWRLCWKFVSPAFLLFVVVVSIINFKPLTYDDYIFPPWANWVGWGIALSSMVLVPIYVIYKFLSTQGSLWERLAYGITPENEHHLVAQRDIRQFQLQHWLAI

Row | Structure (SMILES) | IC50
29 | NCC(=O)O [GLYCINE] | Not Active
30 | O=C1CCc2cc(OCCCCc3nnnn3C3CCCCC3)ccc2N1 [CILOSTAZOL] | Not Active
31 | O=C(O)c1cn(C2CC2)c2cc(N3CCNCC3)c(F)cc2c1=O [CIPROFLOXACIN] | Not Active
32 | O=C1OCCN1/N=C/c1ccc([N+](=O)[O-])o1 [FURAZOLIDONE] | Not Active

target: T2, Endothelin-1 receptor (Homo sapiens, UniProt P25101); assay type: cell membranes, Membrane; conditions: cho-k1; also: in other assays of this panel Not Active means under 50% inhibition at 10 µM
T2 sequence (P25101 whole entry): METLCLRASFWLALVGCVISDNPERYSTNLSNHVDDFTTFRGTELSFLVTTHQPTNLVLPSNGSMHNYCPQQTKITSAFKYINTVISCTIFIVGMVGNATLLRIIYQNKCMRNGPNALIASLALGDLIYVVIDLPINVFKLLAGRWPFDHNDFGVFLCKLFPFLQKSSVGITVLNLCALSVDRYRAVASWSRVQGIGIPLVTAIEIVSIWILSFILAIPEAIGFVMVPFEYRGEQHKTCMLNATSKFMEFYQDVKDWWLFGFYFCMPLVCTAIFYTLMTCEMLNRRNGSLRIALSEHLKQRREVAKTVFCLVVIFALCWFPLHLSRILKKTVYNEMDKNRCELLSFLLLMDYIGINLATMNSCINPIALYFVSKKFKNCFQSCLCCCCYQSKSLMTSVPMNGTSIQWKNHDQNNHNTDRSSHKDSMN

Row | Structure (SMILES) | IC50
33 | NCC(=O)O [GLYCINE] | Not Active
34 | O=C1CCc2cc(OCCCCc3nnnn3C3CCCCC3)ccc2N1 [CILOSTAZOL] | Not Active
35 | O=C(O)c1cn(C2CC2)c2cc(N3CCNCC3)c(F)cc2c1=O [CIPROFLOXACIN] | Not Active
36 | O=C1OCCN1/N=C/c1ccc([N+](=O)[O-])o1 [FURAZOLIDONE] | Not Active

target: T3, Muscarinic acetylcholine receptor M2 (Homo sapiens, UniProt P08172); assay type: cell membranes, CHO-K1, Membrane; conditions: cho-k1; also: in other assays of this panel Not Active means under 50% inhibition at 10 µM
T3 sequence (P08172 whole entry): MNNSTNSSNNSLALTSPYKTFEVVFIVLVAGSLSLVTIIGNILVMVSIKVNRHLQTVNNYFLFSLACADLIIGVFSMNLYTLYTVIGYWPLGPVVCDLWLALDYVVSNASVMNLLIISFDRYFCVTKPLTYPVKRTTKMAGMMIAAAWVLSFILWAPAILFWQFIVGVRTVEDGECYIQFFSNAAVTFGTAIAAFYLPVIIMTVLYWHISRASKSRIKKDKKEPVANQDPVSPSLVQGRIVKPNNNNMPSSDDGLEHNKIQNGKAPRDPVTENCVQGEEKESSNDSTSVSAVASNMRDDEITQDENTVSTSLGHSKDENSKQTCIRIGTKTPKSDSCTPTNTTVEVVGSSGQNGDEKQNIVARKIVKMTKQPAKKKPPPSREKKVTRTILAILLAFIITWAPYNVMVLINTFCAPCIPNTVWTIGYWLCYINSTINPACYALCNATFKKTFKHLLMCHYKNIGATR

Row | Structure (SMILES) | IC50
37 | NCC(=O)O [GLYCINE] | Not Active
38 | O=C1CCc2cc(OCCCCc3nnnn3C3CCCCC3)ccc2N1 [CILOSTAZOL] | Not Active
39 | O=C(O)c1cn(C2CC2)c2cc(N3CCNCC3)c(F)cc2c1=O [CIPROFLOXACIN] | Not Active
40 | O=C1OCCN1/N=C/c1ccc([N+](=O)[O-])o1 [FURAZOLIDONE] | Not Active

target: Beta-2 adrenergic receptor (Homo sapiens, UniProt P07550); assay: DRUGMATRIX: Adrenergic beta2 radioligand binding (ligand: [3H] CGP-12177); assay type: cell membranes, Membrane; conditions: cho; Not Active = under 50% inhibition at 10 µM
Sequence (P07550 whole entry): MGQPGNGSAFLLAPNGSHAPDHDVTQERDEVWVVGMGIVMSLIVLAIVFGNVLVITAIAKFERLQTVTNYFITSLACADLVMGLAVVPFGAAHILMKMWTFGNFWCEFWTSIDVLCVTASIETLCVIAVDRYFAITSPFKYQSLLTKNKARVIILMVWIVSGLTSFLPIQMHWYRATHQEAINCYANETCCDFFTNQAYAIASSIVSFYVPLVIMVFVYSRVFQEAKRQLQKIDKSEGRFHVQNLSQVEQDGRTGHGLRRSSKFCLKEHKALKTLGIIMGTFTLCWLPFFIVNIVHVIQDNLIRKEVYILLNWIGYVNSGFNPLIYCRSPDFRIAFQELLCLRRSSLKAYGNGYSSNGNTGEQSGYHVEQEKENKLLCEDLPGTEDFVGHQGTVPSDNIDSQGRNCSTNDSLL

Row | Structure (SMILES) | IC50
41 | NCC(=O)O [GLYCINE] | Not Active
42 | O=C1CCc2cc(OCCCCc3nnnn3C3CCCCC3)ccc2N1 [CILOSTAZOL] | Not Active
43 | O=C(O)c1cn(C2CC2)c2cc(N3CCNCC3)c(F)cc2c1=O [CIPROFLOXACIN] | Not Active
44 | O=C1OCCN1/N=C/c1ccc([N+](=O)[O-])o1 [FURAZOLIDONE] | Not Active

target: T4, 5-hydroxytryptamine receptor 1A (Rattus norvegicus, UniProt P19327); assay type: cell membranes, CHO-K1, Membrane; conditions: cho-k1; also: in other assays of this panel Not Active means under 50% inhibition at 10 µM
T4 sequence (P19327 whole entry): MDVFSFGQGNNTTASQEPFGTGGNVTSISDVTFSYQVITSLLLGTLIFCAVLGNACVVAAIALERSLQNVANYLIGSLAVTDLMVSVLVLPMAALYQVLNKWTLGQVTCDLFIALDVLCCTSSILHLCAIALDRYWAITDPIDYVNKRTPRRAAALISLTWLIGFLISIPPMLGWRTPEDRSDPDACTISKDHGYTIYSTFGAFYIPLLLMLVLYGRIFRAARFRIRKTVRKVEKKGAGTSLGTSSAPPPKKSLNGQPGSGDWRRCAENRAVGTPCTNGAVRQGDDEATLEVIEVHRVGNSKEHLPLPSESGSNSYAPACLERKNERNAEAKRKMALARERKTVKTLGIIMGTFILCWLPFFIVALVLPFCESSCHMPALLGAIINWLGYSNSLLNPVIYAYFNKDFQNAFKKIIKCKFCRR

Row | Structure (SMILES) | IC50
45 | NCC(=O)O [GLYCINE] | Not Active
46 | O=C1CCc2cc(OCCCCc3nnnn3C3CCCCC3)ccc2N1 [CILOSTAZOL] | Not Active
47 | O=C(O)c1cn(C2CC2)c2cc(N3CCNCC3)c(F)cc2c1=O [CIPROFLOXACIN] | Not Active
48 | O=C1OCCN1/N=C/c1ccc([N+](=O)[O-])o1 [FURAZOLIDONE] | Not Active

test system: not listed separately; assay: DRUGMATRIX: Calcium Channel Type L, Dihydropyridine radioligand binding (ligand: [3H] Nitrendipine); assay type: cell membranes, Rattus norvegicus, Wistar, Cerebral cortex, Membrane; conditions: Not Active = under 50% inhibition at 10 µM

Row | Structure (SMILES) | IC50 | Ki
49 | NCC(=O)O [GLYCINE] | Not Active | Not Active
50 | O=C1CCc2cc(OCCCCc3nnnn3C3CCCCC3)ccc2N1 [CILOSTAZOL] | Not Active | Not Active
51 | O=C(O)c1cn(C2CC2)c2cc(N3CCNCC3)c(F)cc2c1=O [CIPROFLOXACIN] | Not Active | Not Active
52 | O=C1OCCN1/N=C/c1ccc([N+](=O)[O-])o1 [FURAZOLIDONE] | Not Active | Not Active
